Measurements from US20110280806A1, “DYE CONJUGATE IMAGING AGENTS” (priority 2008, published 2011).

Assay: Absorbance of Dye A vs cyanine dye Cy7 (diode array spectrophotometer)
Assay type: physicochemical
Details: 2.5 μM solution, DMSO diluted in PBS
Method: (a) Absorbance and fluorescence of Dye A vs Cyanine Dye Cy7.
0.1 to 0.2 mg vials of the dyes were dissolved initially in 100 μl DMSO and then diluted in PBS to the specified concentrations. Absorbance measurements were performed on 2.5 μM solutions, with a HP 8452A Diode array spectrophotometer. Fluorescence measurements were performed on 250 nM solutions, with a Varian Cary Eclipse Fluorescence Spectrophotometer at standardised instrument settings (600V PMT setting).

| Compound | measured absorbance equates to (molar extinction) (at 748 nm) | measured absorbance equates to (molar extinction) (at 746 nm) |
| --- | --- | --- |
| CCN1C(=CC=CC=CC=CC2=[N+](CCCCCC(=O)O)c3ccc(S(=O)(=O)O)cc3C2(C)C)C(C)(C)c2cc(S(=O)(=O)[O-])ccc21 [Cy7] | 250,000 /M/cm |  |
| CN1C2=C/C(=C/C=C/C3=CC4=[N+](C)c5ccccc5C4(C)C(C)(C)C3)CC(C)(C)C2(C)c2ccccc21 (centres unmarked) [Dye A, 4,4,4a,9-Tetramethyl-2-(3-(1E-4,4,4a,9-tetramethyl-4,4a-dihydro-3H-carbazol-2-ylidenyl)prop-1-enyl)-4,4a-dihydro-3H-carbazolium iodide] |  | 260,000 /M/cm |
